Reference: PMC7971191 (Journal of medicinal chemistry, 2020)

Columns and labels:
[1] = test system: wild-type HIV-1 (NL4-3 strain); experiment: Cell-based antiviral assay; settings: for fold less active than 12a in antiviral assays: compared with 12a
wild-type HIV-1 protease = wild-type HIV-1 protease (Human immunodeficiency virus type 1 group M subtype B, UniProt P12497, Q495K); type: biochemical, HIV-1 (NL4-3 strain); settings: for fold less active than the corresponding tert-leucine analogue: 12b vs 12a, 15b vs 15a, inhibitory potency
HIV-1 protease I50V/A71V = HIV-1 protease I50V/A71V (Human immunodeficiency virus type 1 group M subtype B, UniProt P12497, A559V/I538V/Q495K); type: biochemical, HIV-1 (NL4-3 strain); settings: Ki compared with 12a

Cc1cccc(C)c1OCC(=O)N[C@@H](Cc1ccccc1)C[C@H](O)[C@H](Cc1ccccc1)NC(=O)O[C@H]1CO[C@H]2OCC[C@H]21 [Compound 5, reference compound]
fold better antiviral potency than 4 ([1]; compared with compound 4): 2 fold

COC(=O)N[C@H](C(=O)N[C@@H](Cc1ccccc1)[C@@H](O)C[C@H](Cc1ccccc1)NC(=O)O[C@H]1CO[C@H]2OCC[C@H]21)C(C)(C)C [Compound 12a, (3R,3aS,6aR)-Hexahydrofuro[2,3-b]furan-3-yl ((2S,4S,5S)-4-hydroxy-5-((S)-2-((methoxycarbonyl)amino)-3,3-dimethylbutanamido)-1,6-diphenylhexan-2-yl)carbamate]
fold more potent than 15a in antiviral assays ([1]; wild-type HIV-1, compared with 15a): 3 fold

COC(=O)NC1(C(=O)N[C@@H](Cc2ccccc2)[C@@H](O)C[C@H](Cc2ccccc2)NC(=O)O[C@H]2CO[C@H]3OCC[C@H]32)CCCC1 [Compound 12b, (3R,3aS,6aR)-Hexahydrofuro[2,3-b]furan-3-yl ((2S,4S,5S)-4-hydroxy-5-(1-((methoxycarbonyl)amino)cyclopentane-1-carboxamido)-1,6-diphenylhexan-2-yl)carbamate]
fold less active than the corresponding tert-leucine analogue (wild-type HIV-1 protease): > 2500 fold

COC(=O)N[C@@H](C)C(=O)N[C@@H](Cc1ccccc1)[C@@H](O)C[C@H](Cc1ccccc1)NC(=O)O[C@H]1CO[C@H]2OCC[C@H]21 [Compound 12d, (3R,3aS,6aR)-Hexahydrofuro[2,3-b]furan-3-yl ((2S,4S,5S)-4-hydroxy-5-((S)-2-((methoxycarbonyl)amino)propanamido)-1,6-diphenylhexan-2-yl)carbamate]
fold less active than 12a in antiviral assays [1]: 6 fold

COC(=O)N[C@H](C(=O)N[C@@H](Cc1ccccc1)[C@@H](O)C[C@H](Cc1ccccc1)NC(=O)O[C@H]1CO[C@H]2OCC[C@H]21)C(C)C [Compound 12e, (3R,3aS,6aR)-Hexahydrofuro[2,3-b]furan-3-yl ((2S,4S,5S)-4-hydroxy-5-((S)-2-((methoxycarbonyl)amino)-3-methylbutanamido)-1,6-diphenylhexan-2-yl)carbamate]
fold less active against wild-type protease (wild-type HIV-1 protease; valine analogue compared with alanine analogue 12d / 12a): 4 fold | fold less active than 12a in antiviral assays [1]: 5 fold

COC(=O)N[C@H](C(=O)N[C@@H](Cc1ccccc1)C[C@H](O)[C@H](Cc1ccccc1)NC(=O)O[C@H]1CO[C@H]2OCC[C@H]21)C(C)(C)C [Compound 15a, (3R,3aS,6aR)-Hexahydrofuro[2,3-b]furan-3-yl ((2S,3S,5S)-3-hydroxy-5-((S)-2-((methoxycarbonyl)amino)-3,3-dimethylbutanamido)-1,6-diphenylhexan-2-yl)carbamate]
fold more active than 12a against the I50V/A71V variant (HIV-1 protease I50V/A71V): 4 fold

COC(=O)NC1(C(=O)N[C@@H](Cc2ccccc2)C[C@H](O)[C@H](Cc2ccccc2)NC(=O)O[C@H]2CO[C@H]3OCC[C@H]32)CCCC1 [Compound 15b, (3R,3aS,6aR)-Hexahydrofuro[2,3-b]furan-3-yl ((2S,3S,5S)-3-hydroxy-5-(1-((methoxycarbonyl)amino)cyclopentane-1-carboxamido)-1,6-diphenylhexan-2-yl)carbamate]
fold less active than the corresponding tert-leucine analogue (wild-type HIV-1 protease): 560 fold
